# Patent US20220257621A1, “CANCER CELL PROLIFERATION SUPPRESSION AGENT AND COMPOSITION FOR SUPPRESSING PROLIFERATION OF CANCER CELLS” (SHOWA DENKO K.K., priority 2019, published 2022)
# Tests used:
# [1] = tested on: cell line derived from Lewis lung carcinoma (LLC); experiment: Effect (2) of suppressing proliferation of cancer cells, inositol derivative and Na tocopherol phosphate (WST-8); format: cell-based; settings: Na tocopherol phosphate 10 μM and/or inositol derivative 0.001% by mass 24 h, then atmospheric dust 500 μg/mL 48 h, control without dust = 1, dust + 0.05% ethanol = 1.69
# Experimental: The effect of the inositol derivative and Na tocopherol phosphate on suppressing the proliferation of cancer cells in a cell line derived from Lewis lung carcinoma (LLC, JCRB Cell Bank) was measured under the following conditions. As the following Na tocopherol phosphate, TPNa (registered trademark) (manufactured by Showa Denko K. K.), which is sodium d1-α-tocopheryl phosphate, was used.
# The LLC cells were seeded at the seeding density of 50000 cells/cm^2 in a culture medium in which a Ham F10 medium and an L15 medium (both manufactured by Sigma-Aldrich) were mixed at the ratio of 3:7 (volume ratio), and cultured for 24 hours under the conditions of 37° C. and 5% CO2. Next, Na tocopherol phosphate alone (final concentration of 10 μM in the culture medium), the inositol derivative alone (final concentration of 0.001% by mass in the culture medium), or a combination of Na tocopherol phosphate (final concentration of 10 μM in the culture medium) and the inositol derivative (final concentration of 0.001% by mass in the culture medium) was added to the culture medium. […] Thereafter, the culture medium was replaced with a medium containing 10% (V/V) of WST-8 of Nacalai Tesque Inc., and after further culturing for 3 hours, the absorbance at the wavelength of 450 nm was measured with a microplate reader i-Control (manufactured by Tecan Group Ltd.). […]
# [2] = tested on: normal human epidermal keratinocytes (NHEK); experiment: Effect (2) of suppressing ROS production, inositol derivative and Na tocopherol phosphate; format: cell-based; settings: Na tocopherol phosphate 10 μM and/or inositol derivative 0.001% by mass 24 h, then atmospheric dust 500 μg/mL 48 h, control without dust = 1, dust + 0.05% ethanol = 2.41
# Experimental: The effect of the inositol derivative and Na tocopherol phosphate on suppressing ROS production in normal human epidermal keratinocytes (NHEK, manufactured by KURABO INDUSTRIES LTD.) was measured under the following conditions. As the following Na tocopherol phosphate, TPNa (registered trademark) (manufactured by Showa Denko K. K.), which is sodium d1-α-tocopheryl phosphate, was used.
# The NHEK cells were seeded in a HuMedia KG2 medium manufactured by KURABO INDUSTRIES LTD. at the seeding density of 10000 cells/cm^2, and cultured for 24 hours under the conditions of 37° C. and 5% CO2. Next, Na tocopherol phosphate alone (final concentration of 10 μM in the culture medium), the inositol derivative alone (final concentration of 0.001% by mass in the culture medium), or a combination of Na tocopherol phosphate (final concentration of 10 μM in the culture medium) and the inositol derivative (final concentration of 0.001% by mass in the culture medium) was added to the culture medium. […] Thereafter, the ROS production amount was measured using a ROS assay kit (manufactured by OZ BIOSCIENCES). […] After washing the cells with PBS again, 100 μL of PBS was added, and the fluorescence intensity at an excitation wavelength of 485 nm/an absorption wavelength of 535 nm was measured with a microplate reader i-Control (manufactured by Tecan Group Ltd.). […]
compound,measurement,setting,value
"Cc1c(C)c2c(c(C)c1OP(=O)([O-])[O-])CCC(C)(CCCC(C)CCCC(C)CCCC(C)C)O2.[Na+].[Na+] (stereo not drawn) [Na tocopherol phosphate, sodium d1-α-tocopheryl phosphate]",Relative cell proliferation amount,[1],1.33
same,Relative ROS production amount,[2],1.53
